From patent publication US11447517B2, “Galactoside inhibitor of galectins” (GALECTO BIOTECH AB, priority 2018, dated 2022)

target: galectin-3 (Homo sapiens (Human), UniProt P17931); assay: Fluorescence anisotropy assay, inhibition of galectin / fluorescein tagged saccharide probe interaction; format: binding
Description: Evaluation of Kd Values The affinity of Example 1-71 for galectins were determined by a fluorescence anisotropy assay where the compound was used as an inhibitor of the interaction between galectin and a fluorescein tagged saccharide probe as described Sörme, P., Kahl-Knutsson, B., Huflejt, M., Nilsson, U. J., and Leffler H. (2004) Fluorescence polarization as an analytical tool to evaluate galectin-ligand interactions. Anal. Biochem. 334: 36-47, (Sörme et al., 2004) and Monovalent interactions of Galectin-1 By Salomonsson, Emma; Larumbe, Amaia; Tejler, Johan; Tullberg, Erik; Rydberg, Hanna; Sundin, Anders; Khabut, Areej; Frejd, Torbjorn; Lobsanov, Yuri D.; Rini, James M.; et al, From Biochemistry (2010), 49(44), 9518-9532, (Salomonsson et al., 2010). […] 100 nM albumin was included as a carrier to prevent protein loss at such low concentration of galectin.

galectin-3, sequence (P17931 whole entry): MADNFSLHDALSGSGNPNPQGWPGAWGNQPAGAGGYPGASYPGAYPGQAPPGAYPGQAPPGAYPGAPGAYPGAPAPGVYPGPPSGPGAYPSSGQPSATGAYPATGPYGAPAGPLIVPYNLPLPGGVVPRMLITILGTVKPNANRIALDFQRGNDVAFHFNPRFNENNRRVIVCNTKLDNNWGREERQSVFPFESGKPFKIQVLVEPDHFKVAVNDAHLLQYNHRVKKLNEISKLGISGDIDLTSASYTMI

CO[C@@H]1[C@@H](n2cc(-c3ccc(Cl)c(F)c3)nn2)[C@@H](O)[C@@H](CO)O[C@@H]1Sc1cc(Cl)cnc1C#N [Example 48, 5-Chloro-2-cyanopyridin-3-yl 3-[4-(4-chloro-3-fluorophenyl)-1H-1,2,3-triazol-1-yl]-3-deoxy-2-O-methyl-1-thio-α-D-galactopyranoside] and CO[C@@H]1[C@@H](n2cc(-c3ccc(Cl)c(F)c3)nn2)[C@@H](O)[C@@H](CO)O[C@@H]1Sc1cc(Br)cnc1C#N [Example 51, 5-Bromo-2-cyanopyridin-3-yl 3-[4-(4-chloro-3-fluorophenyl)-1H-1,2,3-triazol-1-yl]-3-deoxy-2-O-methyl-1-thio-α-D-galactopyranoside] are within 1.5-fold of each other in Kd: 31 nM for the first, 37 nM for the second.

First: CO[C@@H]1[C@@H](n2cc(-c3cc(F)c(F)c(F)c3)nn2)[C@@H](O)[C@@H](CO)O[C@@H]1Sc1cc(Cl)cnc1-c1cncnc1 [Example 24, 5-Chloro-2-(pyrimidin-5-yl)pyridin-3-yl 3-deoxy-3-[4-(3,4,5-trifluorophenyl)-1H-1,2,3-triazol-1-yl]-2-O-methyl-1-thio-α-D-galactopyranoside]
Second: CO[C@@H]1[C@@H](n2cc(-c3cc(F)c(F)c(F)c3)nn2)[C@@H](O)[C@@H](CO)O[C@@H]1Sc1cc(Cl)cnc1-c1cccnc1 [Example 26, 5-Chloro-2-(pyridin-3-yl)pyridin-3-yl 3-deoxy-3-[4-(3,4,5-trifluorophenyl)-1H-1,2,3-triazol-1-yl]-2-O-methyl-1-thio-α-D-galactopyranoside]
The Kd of the first is 2-fold lower: 28 nM for the first, 55 nM for the second.

Going from CO[C@@H]1[C@@H](n2cc(-c3cc(F)c(Cl)c(F)c3)nn2)[C@@H](O)[C@@H](CO)O[C@@H]1Sc1ccc(Cl)c(Cl)c1 [Example 71, 3,4-Dichlorophenyl 3-[4-(4-chloro-3,5-difluorophenyl)-1H-1,2,3-triazol-1-yl]-3-deoxy-2-O-methyl-1-thio-α-D-galactopyranoside] to OCCO[C@@H]1[C@@H](n2cc(-c3cc(F)c(Cl)c(F)c3)nn2)[C@@H](O)[C@@H](CO)O[C@@H]1Sc1ccc(Cl)c(Cl)c1 [Example 21, 3,4-Dichlorophenyl 3-[4-(4-chloro-3,5-difluorophenyl)-1H-1,2,3-triazol-1-yl]-3-deoxy-2-O-(2-hydroxyethyl)-1-thio-α-D-galactopyranoside], the Kd falls from 250 nM to 58 nM (4.3-fold). The second binds more tightly here.

Going from CO[C@@H]1[C@@H](n2cc(-c3cc(F)c(F)c(F)c3)nn2)[C@@H](O)[C@@H](CO)O[C@@H]1Sc1cc(-c2nccs2)cnc1-c1nccs1 [Example 32, 2,5-Bis(thiazol-2-yl)pyridin-3-yl 3-deoxy-3-[4-(3,4,5-trifluorophenyl)-1H-1,2,3-triazol-1-yl]-2-O-methyl-1-thio-α-D-galactopyranoside] to CO[C@@H]1[C@@H](n2cc(-c3cc(F)c(F)c(F)c3)nn2)[C@@H](O)[C@@H](CO)O[C@@H]1Sc1cc(Cl)cnc1-c1ccccn1 [Example 25, 5-Chloro-2-(pyridin-2-yl)pyridin-3-yl 3-deoxy-3-[4-(3,4,5-trifluorophenyl)-1H-1,2,3-triazol-1-yl]-2-O-methyl-1-thio-α-D-galactopyranoside], the Kd falls from 210 nM to 24 nM (8.8-fold). The second binds more tightly here.

CO[C@@H]1[C@@H](n2cc(-c3cc(F)c(Cl)c(F)c3)nn2)[C@@H](O)[C@@H](CO)O[C@@H]1Sc1cc(Cl)cnc1C#N [Example 47, 5-Chloro-2-cyanopyridin-3-yl 3-[4-(4-chloro-3,5-difluorophenyl)-1H-1,2,3-triazol-1-yl]-3-deoxy-2-O-methyl-1-thio-α-D-galactopyranoside] and CO[C@@H]1[C@@H](n2cc(-c3cc(F)c(Cl)c(F)c3)nn2)[C@@H](O)[C@@H](CO)O[C@@H]1Sc1cc(Br)cnc1C#N [Example 50, 5-Bromo-2-cyanopyridin-3-yl 3-[4-(4-chloro-3,5-difluorophenyl)-1H-1,2,3-triazol-1-yl]-3-deoxy-2-O-methyl-1-thio-α-D-galactopyranoside] are within 1.5-fold of each other in Kd: 34 nM for the first, 23 nM for the second.

CO[C@@H]1[C@@H](n2cc(-c3cc(F)c(F)c(F)c3)nn2)[C@@H](O)[C@@H](CO)O[C@@H]1Sc1cncc(C#N)c1 [Example 59, 5-Cyanopyridin-3-yl 3-deoxy-3-[4-(3,4,5-trifluorophenyl)-1H-1,2,3-triazol-1-yl]-2-O-methyl-1-thio-α-D-galactopyranoside] and CO[C@@H]1[C@@H](n2cc(-c3cc(F)c(Cl)c(F)c3)nn2)[C@@H](O)[C@@H](CO)O[C@@H]1Sc1cncc(C#N)c1 [Example 60, 5-Cyanopyridin-3-yl 3-[4-(4-chloro-3,5-difluorophenyl)-1H-1,2,3-triazol-1-yl]-3-deoxy-2-O-methyl-1-thio-α-D-galactopyranoside] are within 1.5-fold of each other in Kd: 76 nM for the first, 80 nM for the second.

First: CO[C@@H]1[C@@H](n2cc(-c3cc(F)c(F)c(F)c3)nn2)[C@@H](O)[C@@H](CO)O[C@@H]1Sc1cncc(Cl)c1 [Example 42, 5-Chloropyridin-3-yl 3-deoxy-3-[4-(3,4,5-trifluorophenyl)-1H-1,2,3-triazol-1-yl]-2-O-methyl-1-thio-α-D-galactopyranoside]
Second: CNCCO[C@@H]1[C@@H](n2cc(-c3cc(F)c(F)c(F)c3)nn2)[C@@H](O)[C@@H](CO)O[C@@H]1Sc1cncc(Br)c1 [Example 20, 5-Bromopyridin-3-yl 3-deoxy-3-[4-(3,4,5-trifluorophenyl)-1H-1,2,3-triazol-1-yl]-2-O-[2-(methylamino)ethyl]-1-thio-α-D-galactopyranoside]
The Kd of the first is 2.4-fold lower: 29 nM for the first, 71 nM for the second.

First: C#Cc1cnc(C#N)c(S[C@H]2O[C@H](CO)[C@H](O)[C@H](n3cc(-c4cc(F)c(C)c(F)c4)nn3)[C@H]2OC)c1 [Example 57, 2-Cyano-5-ethynylpyridin-3-yl 3-deoxy-3-[4-(3,5-difluoro-4-methylphenyl)-1H-1,2,3-triazol-1-yl]-2-O-methyl-1-thio-α-D-galactopyranoside]
Second: CO[C@@H]1[C@@H](n2cc(-c3ccc(Cl)c(F)n3)nn2)[C@@H](O)[C@@H](CO)O[C@@H]1Sc1cc(Cl)cnc1C#N [Example 55, 5-Chloro-2-cyanopyridin-3-yl 3-[4-(5-chloro-6-fluoropyridin-2-yl)-1H-1,2,3-triazol-1-yl]-3-deoxy-2-O-methyl-1-thio-α-D-galactopyranoside]
The Kd of the first is 10-fold lower: 35 nM for the first, 350 nM for the second.

Going from OC[C@H]1O[C@H](Sc2cncc(Br)c2)[C@H](OCC(O)C(F)(F)F)[C@@H](n2cc(-c3cc(F)c(F)c(F)c3)nn2)[C@H]1O (stereo partly drawn) [Example 5, 5-Bromopyridin-3-yl 3-deoxy-3-[4-(3,4,5-trifluorophenyl)-1H-1,2,3-triazol-1-yl]-2-O-(1,1,1-trifluoro-2-hydroxyprop-3-yl)-1-thio-α-D-galactopyranoside] to COC1[C@@H](Sc2cc(Cl)ccc2C(=O)N(C)C)OC(CO)[C@H](O)[C@@H]1n1cc(-c2cc(F)c(Cl)c(F)c2)nn1 (stereo partly drawn) [Example 4, 4-Chloro-N,N-dimethyl-benzamide-2-yl 3-[4-(4-chloro-3,5-difluorophenyl)-1H-1,2,3-triazol-1-yl]-3-deoxy-2-O-methyl-1-thio-α-D-galactopyranoside], the Kd falls from 82 nM to 14 nM (5.9-fold).

Molecule CO[C@@H]1[C@@H](n2cc(-c3ccc(C)c(F)c3)nn2)[C@@H](O)[C@@H](CO)O[C@@H]1Sc1cc(Cl)ccc1C(=O)N1CCC1 [Example 41, 2-(N-azetidinyl-carbonyl)-5-chlorophenyl 3-deoxy-3-[4-(3-fluoro-4-methylphenyl)-1H-1,2,3-triazol-1-yl]-2-O-methyl-1-thio-α-D-galactopyranoside] has a Kd of 7 nM.
